Entries after “also recorded” stand apart in the source; their conditions may differ. Counter-ions that a name gives are not always drawn.
How the values were obtained:
[1] = tested on: micturition reflex of female rats; assay: micturition reflex (cystometrogram) of female rats in the interstitial cystitis (IC) model of visceral pain, acetic acid bladder infusion; type: in vivo, rat; details: for frequency of acetic-acid-induced contractions compared with rate during saline infusion, both doses: both doses of Table 1
[2] = tested on: patients with chronic nonbacterial prostatitis; details: typically orally administered; cited from earlier work
[3] = female rats, acetic acid infusion, intrathecal, doses of Table 1
[4] = urethane-anesthetized female rats, 0.5% acetic acid bladder infusion, intrathecal, two ascending doses (Table 1)

NCC(CC(=O)O)c1ccc(Cl)cc1 (stereo not drawn) [Baclofen]
amplitude of bladder contractions [1, 3]: Neither baclofen nor ketorolac reduced the amplitude of bladder contraction | frequency of acetic-acid-induced contractions compared with rate during saline infusion, both doses ([1]; female rats, intrathecal): reduced the acetic-acid-induced contraction frequency in a dose-dependent manner without suppressing it below the normal rate of contraction observed with saline infusion | micturition reflex frequency [1, 4]: statistically significant only at the higher dose | micturition reflex frequency ([1]; urethane-anesthetized female rats, 0.5% acetic acid bladder infusion, intrathecal, two ascending doses (Table 1), listed as baclofen): suppressed micturition reflex frequency in a dose-dependent fashion

O=C(c1ccccc1)c1ccc2n1CCC2C(=O)O (stereo not drawn) [Ketorolac, Ketorolac tris]
rats exhibiting a lower reflex frequency, lower dose ([1]; 10 rats, intrathecal, lower dose (100 μg per Table 1)): 8 of 10 | amplitude of bladder contractions [1, 3]: Neither baclofen nor ketorolac reduced the amplitude of bladder contraction | frequency of acetic-acid-induced contractions compared with rate during saline infusion, both doses ([1]; female rats, intrathecal): reduced the acetic-acid-induced contraction frequency in a dose-dependent manner without suppressing it below the normal rate of contraction observed with saline infusion | rats in which reflex frequency was reduced, high dose ([1]; ten rats tested, intrathecal, high dose (500 μg per Table 1)): each of the ten rats tested | micturition reflex frequency [1, 4]: suppressed micturition reflex frequency in a dose-dependent fashion

CNCCCN1c2ccccc2CCc2ccccc21 [Desipramine, Desipramine HCl]
amplitude of bladder contractions [1, 3]: Neither of these drugs suppressed the amplitude of bladder contractions | micturition reflex frequency at the higher dose ([1]; female rats, acetic acid infusion, intrathecal, higher dose of Table 1): effective at reducing the reflex frequency | micturition reflex frequency at the lower dose ([1]; female rats, acetic acid infusion, intrathecal, lower dose of Table 1): not at the lower dose | frequency of acetic-acid-induced bladder contractions compared with frequency during saline infusion, higher dose ([1]; female rats, intrathecal, higher dose of Table 1): reduced the frequency of acetic-acid-induced bladder contractions to a level comparable to the normal frequency of contraction seen with saline infusion | micturition reflex frequency [1, 4]: suppressed micturition reflex frequency in a dose-dependent fashion

NCC1(CC(=O)O)CCCCC1 [Gabapentin]
amplitude of bladder contractions ([1]; rat, in vivo): Neither of these drugs suppressed the amplitude of bladder contractions | frequency of acetic-acid-induced bladder contractions compared with frequency during saline infusion, higher dose ([1]; rat, in vivo): reduced the frequency of acetic-acid-induced bladder contractions to a level comparable to the normal frequency of contraction seen with saline infusion | micturition reflex frequency ([1]; rat, in vivo): suppressed micturition reflex frequency in a dose-dependent fashion | micturition reflex frequency at the higher dose ([1]; rat, in vivo): effective at reducing the reflex frequency | micturition reflex frequency at the lower dose ([1]; rat, in vivo): not at the lower dose

CCCCN1CCCCC1C(=O)Nc1c(C)cccc1C (stereo not drawn) [Bupivacaine, Bupivacaine HCl]
amplitude of bladder contractions [1, 3]: no effect on the amplitude of contraction | frequency of acetic-acid-induced contractions compared with rate during saline infusion, both doses ([1]; female rats, intrathecal): reduced the frequency of acetic-acid-induced contractions below the rate observed during saline infusion | micturition reflex frequency ([1]; urethane-anesthetized female rats, 0.5% acetic acid bladder infusion, intrathecal, two ascending doses (Table 1), HCl): suppressed micturition reflex frequency in a dose-dependent fashion; also recorded: appeared to suppress the micturition frequency at both doses

Clc1cccc(Cl)c1N=C1NCCN1 [Clonidine, Clonidine HCl]
micturition reflex frequency [1, 4]: no measurable effect

pentosan polysulfate
patients for whom treatment proved successful [2]: approximately 40%
